Literature values, collected in patent US6172066A, “Dihydropyrimidines and uses thereof” (Synaptic Pharmaceutical Corporation, priority 1997, dated 2001).
Read-outs that look alike come from different tables or passages of the source.

Tests used:
[1] = cited from earlier work
[2] = in addition to its antihypertensive effects; cited from earlier work

| Structure (SMILES) | side effects in BPH treatment ([1]; patients with BPH) | usefulness in treating BPH ([1]; patients with BPH) | side effects of clonidine [2] | side effects in BPH treatment ([1]; in vivo) |
| --- | --- | --- | --- | --- |
| CC(COc1ccccc1)N(CCCl)Cc1ccccc1 (stereo not shown) [phenoxybenzamine] | significant side effects such as dizziness and asthenia | useful in relieving the symptoms of BPH |  |  |
| Clc1cccc(Cl)c1N=C1NCCN1 [clonidine] |  |  | dry mouth and sedation |  |
| COc1cc2nc(N3CCN(C(=O)c4ccco4)CC3)nc(N)c2cc1OC [prazosin] |  | useful for treating BPH |  | untoward side effects |
| COc1cc2nc(N3CCN(C(=O)C4CCCO4)CC3)nc(N)c2cc1OC (stereo not shown) [terazosin] | untoward side effects | useful for treating BPH |  |  |
